Active and inactive are the calls of the source.
How the values were obtained:
Escherichia coli = test: microbe, parasite or virus in culture
[1] = control 3'UTR Renilla luciferase suppression, dose response, counter-screen for Shn3 inhibitor project, cell-based, Clone20-Shn3RL, cherry-picked (AID 624133); assay type: functional
[2] = Shn3 3'UTR reporter inhibitors, dose response, cell-based, Clone20 osteoblasts, firefly luciferase, cherry-picked (AID 624132); assay type: functional;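 also: firefly luciferase luminescence from reporter carrying the Shn3 3'UTR in osteoblasts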
[3] = cytotoxicity toward NIH3T3 fibroblasts, dose response, counter-screen, cell-based, ATP luminescence, mouse fibroblasts (AID 2010); assay type: functional;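 also: cells exposed to compound for about 90 hours before reading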
[4] = inhibitors of intracellular T. cruzi replication, confirmation, NIH3T3 host cells, beta-gal luminescence (AID 2044); assay type: functional, cell-based;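 also: intracellular parasites grown in NIH/3T3 mouse fibroblasts as host cells; luminescent beta-galactosidase reporter signal from transgenic T. cruzi replicating inside host cells; inhibitors lower the luminescence signal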
[5] = HepG2 cell cytotoxicity, dose response, cytotoxicity control for Shn3 inhibitor project, CellTiter-Glo, cherry-picked (AID 624134); assay type: functional, cell-based
Phospholipase A2 = Phospholipase A2 (Homo sapiens, UniProt P04054); assay type: functional;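 also: confirmatory dose-response counterscreen on phospholipase A2, testing hits that came from an ultra-high-throughput screen for ATG4B inhibitors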
Phospholipase A2, sequence (P04054 whole entry): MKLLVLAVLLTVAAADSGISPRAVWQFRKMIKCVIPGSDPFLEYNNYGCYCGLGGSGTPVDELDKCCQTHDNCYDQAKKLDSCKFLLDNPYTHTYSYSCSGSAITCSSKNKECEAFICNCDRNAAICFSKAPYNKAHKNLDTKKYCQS

Cysteine protease ATG4B = target: T1, Cysteine protease ATG4B (Homo sapiens, UniProt Q9Y4P1); assay type: functional;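 also: Fluorescence-based dose-response confirmation assay measuring inhibition of ATG4B activity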
T1 sequence (Q9Y4P1 whole entry): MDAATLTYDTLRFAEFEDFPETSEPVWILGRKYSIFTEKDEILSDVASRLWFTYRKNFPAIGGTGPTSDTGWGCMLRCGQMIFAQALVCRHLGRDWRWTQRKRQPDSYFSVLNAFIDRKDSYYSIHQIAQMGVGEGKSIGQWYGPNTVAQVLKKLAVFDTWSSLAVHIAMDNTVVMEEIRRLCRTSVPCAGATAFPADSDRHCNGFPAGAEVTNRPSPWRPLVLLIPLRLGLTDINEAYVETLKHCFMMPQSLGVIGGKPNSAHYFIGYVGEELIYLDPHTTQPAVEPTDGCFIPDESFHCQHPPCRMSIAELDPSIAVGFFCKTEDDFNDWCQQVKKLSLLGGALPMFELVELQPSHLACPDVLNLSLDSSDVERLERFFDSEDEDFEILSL

HeLa = test: HeLa cell cytotoxicity, dose response, cytotoxicity control for MITF activator project, CellTiter-Glo luminescence, cherry-pick samples (AID 540259); assay type: functional, cell-based; settings: Homo sapiens
[6] = target: Glucose-6-phosphate 1-dehydrogenase (Homo sapiens, UniProt P11413); test: human G6PD enzyme inhibitors, dose response, selectivity assay for P. falciparum G6PD inhibitor project, biochemical, fluorescence (AID 504792); assay type: functional
Glucose-6-phosphate 1-dehydrogenase, sequence (P11413 whole entry): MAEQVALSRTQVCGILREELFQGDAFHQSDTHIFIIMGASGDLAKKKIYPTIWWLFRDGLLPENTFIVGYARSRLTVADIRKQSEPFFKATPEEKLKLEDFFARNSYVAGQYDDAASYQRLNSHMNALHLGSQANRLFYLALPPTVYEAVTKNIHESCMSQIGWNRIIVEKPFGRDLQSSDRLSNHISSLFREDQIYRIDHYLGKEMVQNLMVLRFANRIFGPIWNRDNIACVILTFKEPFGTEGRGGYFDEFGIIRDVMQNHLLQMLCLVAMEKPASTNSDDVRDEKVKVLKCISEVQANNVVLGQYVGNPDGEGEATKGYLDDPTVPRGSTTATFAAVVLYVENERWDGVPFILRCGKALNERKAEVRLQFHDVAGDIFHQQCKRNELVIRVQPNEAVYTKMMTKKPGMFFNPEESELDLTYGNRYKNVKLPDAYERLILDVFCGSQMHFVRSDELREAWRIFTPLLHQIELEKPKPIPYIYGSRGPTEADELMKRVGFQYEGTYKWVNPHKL

[7] = target: T2, Mannose-6-phosphate isomerase (Homo sapiens, UniProt P34949); test: human PMI inhibitors, high substrate, primary screen, biochemical, fluorescence intensity, high mannose 6-phosphate (AID 1220)
T2 sequence (P34949 whole entry): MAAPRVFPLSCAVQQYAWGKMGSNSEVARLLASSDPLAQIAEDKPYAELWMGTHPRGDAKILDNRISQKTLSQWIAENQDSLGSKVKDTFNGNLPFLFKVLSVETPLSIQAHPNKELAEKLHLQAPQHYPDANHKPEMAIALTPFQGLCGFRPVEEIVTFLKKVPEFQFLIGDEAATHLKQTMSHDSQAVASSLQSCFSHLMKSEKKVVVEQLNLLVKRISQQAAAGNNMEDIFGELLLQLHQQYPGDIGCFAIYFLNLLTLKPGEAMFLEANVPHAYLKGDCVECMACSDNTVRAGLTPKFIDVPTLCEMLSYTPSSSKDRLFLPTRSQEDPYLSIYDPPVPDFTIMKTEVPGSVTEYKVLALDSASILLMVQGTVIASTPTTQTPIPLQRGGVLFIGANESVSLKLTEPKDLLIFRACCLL

[8] = inhibitors of firefly luciferase expression or activity, dose response, H4 neuroglioma cells, luminescence (AID 1990); assay type: functional, cell-based
[9] = inhibitors of SNCA 5'UTR-driven reporter translation, confirmation, H4 neuroglioma cells, luminescence (AID 1988); assay type: functional, cell-based
[10] = NIH-3T3 fibroblast cytotoxicity, dose response, cytotoxicity control, cell-based, fluorescence, Alamar Blue, secondary assay (AID 2327); assay type: functional;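 also: NIH-3T3 mouse fibroblasts cultured with fluconazole at 8 µg/mL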
Nonstructural protein 1 = Nonstructural protein 1 (Influenza A virus, UniProt Q194T2); assay type: functional, Influenza A virus (A/California/07/2009(H1N1))
Nonstructural protein 1, sequence (Q194T2 whole entry): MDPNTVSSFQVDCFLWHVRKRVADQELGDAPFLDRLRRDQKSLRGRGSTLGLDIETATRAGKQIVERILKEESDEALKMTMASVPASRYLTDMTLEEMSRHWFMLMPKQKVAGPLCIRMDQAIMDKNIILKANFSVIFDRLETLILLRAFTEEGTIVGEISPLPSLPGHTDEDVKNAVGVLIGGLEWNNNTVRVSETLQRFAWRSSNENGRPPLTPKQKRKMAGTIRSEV

[11] = C. albicans growth with fluconazole, confirmation, fluorescence, retest (AID 2467); assay type: functional, cell-based
[12] = Luminescence Cell-Based Dose Response HTS to Identify Inhibitors of 5'UTR Stem-Loop Driven Prion Protein mRNA Translation in H4 Neuroglioblastoma Cells. [Related pubchem assays: 1827 (Project Summary), 1813 (Primary HTS)]; assay type: functional
[13] = target: FAD-linked sulfhydryl oxidase ALR (Homo sapiens, UniProt P55789); test: inhibitors of human ALR sulfhydryl oxidase, dose response, biochemical, H2O2 detection, luminescence, cherry-pick (AID 493248)
FAD-linked sulfhydryl oxidase ALR, sequence (P55789 whole entry): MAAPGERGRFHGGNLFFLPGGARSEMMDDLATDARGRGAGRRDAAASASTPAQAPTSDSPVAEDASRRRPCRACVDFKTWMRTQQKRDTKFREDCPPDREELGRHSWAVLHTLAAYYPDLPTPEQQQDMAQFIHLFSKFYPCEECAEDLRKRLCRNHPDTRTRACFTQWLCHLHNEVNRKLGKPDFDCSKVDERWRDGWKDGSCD

Streptokinase A = target: T3, Streptokinase A (Streptococcus pyogenes serotype M1, UniProt P10520); test: S. pyogenes streptokinase expression inhibitors, potency, dose response, plasminogen activation absorbance, OD405 (AID 1914); assay type: functional, Streptococcus pyogenes M1 GAS;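 also: secreted streptokinase activity via plasminogen activation per viability signal from cell pellet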
T3 sequence (P10520 whole entry): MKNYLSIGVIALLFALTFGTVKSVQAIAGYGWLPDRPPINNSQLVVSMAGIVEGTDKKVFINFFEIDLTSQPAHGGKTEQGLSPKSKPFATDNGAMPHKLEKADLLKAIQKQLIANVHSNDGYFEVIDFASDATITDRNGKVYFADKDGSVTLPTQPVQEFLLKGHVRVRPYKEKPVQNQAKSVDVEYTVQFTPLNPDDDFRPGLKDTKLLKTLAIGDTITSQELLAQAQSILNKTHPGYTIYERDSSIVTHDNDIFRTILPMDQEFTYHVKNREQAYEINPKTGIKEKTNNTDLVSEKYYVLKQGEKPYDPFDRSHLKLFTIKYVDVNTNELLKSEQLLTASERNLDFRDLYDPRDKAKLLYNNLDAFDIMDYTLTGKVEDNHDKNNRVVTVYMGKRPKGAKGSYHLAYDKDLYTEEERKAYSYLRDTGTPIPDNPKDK

Streptococcus = test: Group A Streptococcus viability loss, dose response, counter-screen for streptokinase expression inhibitor project, luminescence, BacTiterGlo (AID 1915); assay type: functional, organism-based;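 also: potency for reduction of bacterial viability or growth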
[14] = Luminescence Cell-Based Dose Retest to Confirm Inhibitors of Cancer Stem Cells. [Related pubchem assays (depositor defined):AID2717, AID2721]; assay type: functional; settings: Homo sapiens
INS1 = test: beta cell apoptosis inhibitors, cytokine rescue, dose response, luminescence, retest (AID 449756); assay type: functional, cell-based; settings: Rattus norvegicus;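 also: cell death triggered by IL-1 beta plus TNF-alpha plus IFN-gamma mixture; protective hits raise ATP signal compared with cytokine alone wells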
Vero = test: cells; assay type: functional; settings: Chlorocebus sabaeus
[15] = test system: Streptococcus sp. 'group A'; test: growth inhibition of control SK(-) GAS strain, dose response, counter-screen for streptokinase expression inhibitor project, luminescence, kanamycin, BacTiterGlo, confirmation (AID 1900); assay type: functional, organism-based
[16] = HIV-1 Env-mediated cell fusion inhibitors, dose response, CCR5-tropic Env (AID 2279); assay type: functional
[17] = target: Heat shock protein HSP 90-alpha (Homo sapiens, UniProt P07900); assay type: functional, organism-based
HEK293 = test: inhibitors of LMP1-driven NF-kB reporter, dose response, cell-based, HEK293, luciferase, cherry-pick (AID 588343); assay type: functional; settings: Homo sapiens
[18] = target: T4, Rac GTPase-activating protein 1 (Homo sapiens, UniProt Q9H0H5); test: MgcRacGAP GTPase-activating activity inhibitors, confirmation, biochemical, ADP Hunter fluorescence, primary and confirmatory (AID 624330); assay type: functional
T4 sequence (Q9H0H5 whole entry): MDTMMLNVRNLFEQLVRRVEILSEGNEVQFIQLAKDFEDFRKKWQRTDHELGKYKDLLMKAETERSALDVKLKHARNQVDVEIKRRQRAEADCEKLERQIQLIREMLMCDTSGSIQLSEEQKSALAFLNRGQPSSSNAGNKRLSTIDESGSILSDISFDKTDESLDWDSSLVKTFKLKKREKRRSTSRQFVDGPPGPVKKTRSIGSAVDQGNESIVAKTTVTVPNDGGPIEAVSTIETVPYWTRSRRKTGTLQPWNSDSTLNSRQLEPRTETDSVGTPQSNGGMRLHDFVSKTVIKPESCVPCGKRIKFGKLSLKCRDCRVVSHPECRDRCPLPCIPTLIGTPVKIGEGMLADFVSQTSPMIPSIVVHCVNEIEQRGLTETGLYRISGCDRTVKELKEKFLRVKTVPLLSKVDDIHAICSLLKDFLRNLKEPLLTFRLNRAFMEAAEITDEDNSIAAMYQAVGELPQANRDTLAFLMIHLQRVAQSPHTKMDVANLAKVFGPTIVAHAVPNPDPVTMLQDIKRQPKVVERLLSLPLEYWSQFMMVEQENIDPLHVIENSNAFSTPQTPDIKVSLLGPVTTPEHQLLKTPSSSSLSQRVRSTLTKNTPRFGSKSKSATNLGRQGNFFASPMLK

[19] = target: T5, Corticotropin-releasing factor receptor 2/Corticotropin-releasing factor-binding protein (Homo sapiens, UniProt P24387+Q13324); test: activators of CRF receptor 2 with binding protein – uHTS hits, confirmation (AID 602473); assay type: functional; settings: read-out: EC50_Mean
T5 sequence (Q13324 whole entry): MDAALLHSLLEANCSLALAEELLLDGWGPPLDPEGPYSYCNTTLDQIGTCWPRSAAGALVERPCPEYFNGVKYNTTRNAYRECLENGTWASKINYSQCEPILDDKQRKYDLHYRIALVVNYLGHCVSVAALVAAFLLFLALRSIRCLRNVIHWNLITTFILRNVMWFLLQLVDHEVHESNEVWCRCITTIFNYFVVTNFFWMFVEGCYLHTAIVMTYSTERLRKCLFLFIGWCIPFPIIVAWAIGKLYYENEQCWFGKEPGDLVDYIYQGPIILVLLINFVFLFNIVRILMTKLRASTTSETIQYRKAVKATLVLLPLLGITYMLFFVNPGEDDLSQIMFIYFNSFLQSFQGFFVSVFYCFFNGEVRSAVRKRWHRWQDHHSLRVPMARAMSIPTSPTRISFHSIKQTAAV
T5 sequence (P24387 whole entry): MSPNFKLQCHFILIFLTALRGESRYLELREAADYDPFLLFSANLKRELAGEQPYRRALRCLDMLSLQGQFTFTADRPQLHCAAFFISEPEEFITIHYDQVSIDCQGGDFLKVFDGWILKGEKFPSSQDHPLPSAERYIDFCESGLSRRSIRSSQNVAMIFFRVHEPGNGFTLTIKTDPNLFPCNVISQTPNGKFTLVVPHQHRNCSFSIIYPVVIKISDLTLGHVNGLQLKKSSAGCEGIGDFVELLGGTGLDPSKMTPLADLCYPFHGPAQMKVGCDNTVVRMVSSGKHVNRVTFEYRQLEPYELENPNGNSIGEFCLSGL

COc1ccc(OC)c(S(=O)(=O)NCCc2ccccc2)c1
AC50 (Escherichia coli): 28.4 µM (active)

CCOc1cc(CNCc2ccccc2)ccc1OCc1ccc(Cl)cc1
AC50 [1]: 5.41 µM (active)
AC50 [2]: 6.69 µM (active)
EC50 [3]: > 16 µM (not active)
EC50 [4]: 2.88 µM (active)
AC50 [5]: 19.7 µM (active)

C[C@@H]1C(c2ccc(F)cc2)=NN(c2ccccc2)[C@H]1C(=O)N1CCOC1=O
AC50 (Escherichia coli): 33.5 µM (active)

CCc1ccc2c(c1)C(c1ccc([N+](=O)[O-])cc1)=NNC(c1ccccc1)=N2
IC50 (Phospholipase A2): 0.357 µM (active)
IC50 (Cysteine protease ATG4B): 0.399 µM (active)

COc1ccc2nc3ccccc3nc2c1
AC50 (HeLa): 73.5 µM (active)

C=CCOc1ccc(CNc2ccc3[nH]c(O)nc3c2)cc1OC
IC50 [6]: 53.4 µM (inactive)
IC50 [7]: > 50 µM (not active)

Cc1ccc(S(=O)(=O)Nc2ccc(O)c3ncccc23)cc1
AC50 [1]: 0.715 µM (active)
AC50 [2]: 1.55 µM (active)
EC50 [8]: 15.1 µM (active)
EC50 [9]: 10.6 µM (active)
EC50 [10]: 28.4 µM (active)
IC50 (Nonstructural protein 1): 16 µM (active)
EC50 [11]: 2.12 µM (inconclusive)
AC50 [5]: 41.4 µM (active)
EC50 [12]: > 30 µM (not active)
AC50 [13]: 5.2 µM (active)

CCCN1C(=O)C(=O)N(CC(=O)c2cc(C)n(C3CC3)c2C)C1=O
AC50 (HeLa): 62.6 µM (active)

O=C(NCc1nc(-c2ccc(C(F)(F)F)cc2)no1)Nc1cc(Cl)cc(Cl)c1
EC50 (Streptokinase A): > 150 µM (not active)
EC50 (Streptococcus): 8.49 µM (active)
EC50 [3]: 4.69 µM (active)
AC50 [14]: 1.53 µM (active)
AC50 (INS1): 7.49 µM (active)
CC50 (Vero): 8.95 µM (active)
EC50 [15]: 2.88 µM (active)
EC50 [4]: 2.43 µM (active)

O=C(COC(=O)Cn1cnc2ccccc2c1=O)NCC12CC3CC(CC(C3)C1)C2
AC50 (Escherichia coli): 32.8 µM (active)

O=C(O)c1cc(-c2ccc(-c3c(-c4ccc5c(c4)OCO5)noc3-c3ccsc3)cc2)nc2ccccc12
EC50 (Streptokinase A): > 150 µM (not active)
AC50 (HeLa): 52.5 µM (active)
EC50 (Streptococcus): 3.63 µM (active)
IC50 [16]: 37.7 µM (active)
IC50 (Phospholipase A2): 2.26 µM (active)
EC50 [15]: 1.85 µM (active)
IC50 (Cysteine protease ATG4B): 6.81 µM (active)

CN1CCC(=NNC(=O)C(=O)Nc2cccc(Br)c2)CC1
AC50 (Escherichia coli): 65.2 µM (active)

O=C(Oc1c(Cl)cc(Cl)c2cccnc12)c1cccc([N+](=O)[O-])c1
AC50 [17]: 14.3 µM (active)
EC50 [10]: 5.41 µM (active)
EC50 [11]: 0.119 µM (active)
AC50 (HEK293): 30.6 µM (active)

COc1cc(N)c2ncccc2c1SC
IC50 [6]: > 80 µM (inactive)
IC50 [18]: 41.3 µM (active)

COc1ccc(C=Cc2ccc3ccccc3n2)c(OC)c1
EC50 [19]: > 53 µM (inactive)
AC50 (HEK293): 14.5 µM (active)

CCc1cc(-c2nnn(CCC3COCCO3)c2CC)ccc1-c1cn(Cc2ccccc2)nn1 (centres undefined)
CC50 (Vero): 23.7 µM (active)

— ChEMBL document CHEMBL1201862, “PubChem BioAssay data set” (2004)
